Reference: ChEMBL document CHEMBL1201862, “PubChem BioAssay data set” (2004)
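Exposure lasted 48 hours, with cells grown in 96-well plates and compounds tested at five concentrations. GI50 = concentration required for 50% inhibition of growth.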 Activity calls are given as the source filed them. Rule as the data show it: active = GI50 up to about 1.1 µM and inactive = higher.

How the values were obtained:
Experiment in all cases: inhibition of tumour cell growth, NCI panel, 48 h
ACHN = system: ACHN
HL-60 = system: HL-60
HOP-92 = system: HOP-92
MOLT-4 = system: MOLT-4
Malme-3M = system: Malme-3M
NCI-H226 = system: NCI-H226
NCI-H460 = system: NCI-H460
SF-268 = system: SF-268
SF-295 = system: SF-295
SK-MEL-28 = system: SK-MEL-28
SK-MEL-5 = system: SK-MEL-5
SN12C = system: SN12C
TK-10 = system: TK-10
U-251 = system: U-251
UACC-62 = system: UACC-62
UO-31 = system: UO-31
SR = system: SR

Measured: GI50

C=CCN(N=O)C(=O)NCCCC(NC(C)=O)C(=O)NCc1ccccc1 (stereo not given)
inactive: ACHN > 100 µM | HL-60 > 100 µM | HOP-92 61.5 µM | MOLT-4 > 100 µM | Malme-3M > 100 µM | NCI-H226 > 100 µM | NCI-H460 > 100 µM | SF-268 > 100 µM | SF-295 > 100 µM | SK-MEL-28 > 100 µM | SK-MEL-5 > 100 µM | SN12C > 100 µM | TK-10 > 100 µM | U-251 > 100 µM | UACC-62 > 100 µM | UO-31 > 100 µM

Nc1ccn(CCOC(c2ccccc2)P(=O)(O)O)c(=O)n1 (stereo not given)
inactive: ACHN > 100 µM | HL-60 > 100 µM | MOLT-4 > 100 µM | Malme-3M > 100 µM | NCI-H226 > 100 µM | NCI-H460 > 100 µM | SF-268 > 100 µM | SF-295 > 100 µM | SK-MEL-28 > 100 µM | SK-MEL-5 > 100 µM | SN12C > 100 µM | SR > 100 µM | TK-10 > 100 µM | U-251 > 100 µM | UACC-62 > 100 µM | UO-31 > 100 µM

COc1ccc(Cc2nccc3cc(OC)c(OC)cc23)cc1
inactive: ACHN 43.3 µM | MOLT-4 39.4 µM | Malme-3M > 100 µM | NCI-H460 90.6 µM | SF-268 65.5 µM | SF-295 32.4 µM | SK-MEL-28 > 100 µM | SK-MEL-5 35.7 µM | SN12C 36.9 µM | TK-10 > 100 µM | U-251 > 100 µM | UACC-62 42.2 µM | UO-31 16.9 µM

C=CCNC(=O)N(CCC)CCCCC(NC(C)=O)C(=O)NCc1ccccc1 (stereo not given)
inactive: ACHN > 100 µM | HL-60 > 100 µM | HOP-92 > 100 µM | MOLT-4 > 100 µM | Malme-3M > 100 µM | NCI-H226 > 100 µM | NCI-H460 > 100 µM | SF-268 > 100 µM | SF-295 > 100 µM | SK-MEL-28 > 100 µM | SK-MEL-5 > 100 µM | SN12C > 100 µM | TK-10 > 100 µM | U-251 > 100 µM | UACC-62 > 100 µM | UO-31 > 100 µM

NC(=O)c1csc(C2OC(COP(=O)(O)CP(=O)(O)OCC3OC(n4cnc5c(N)ncnc54)C(O)C3O)C(O)C2O)n1 (stereo not given)
inactive: ACHN > 100 µM | HL-60 > 100 µM | HOP-92 > 100 µM | MOLT-4 > 100 µM | Malme-3M > 100 µM | NCI-H226 > 100 µM | NCI-H460 > 100 µM | SF-268 > 100 µM | SF-295 53.7 µM | SK-MEL-28 > 100 µM | SK-MEL-5 > 100 µM | SN12C > 100 µM | TK-10 > 100 µM | U-251 > 100 µM | UACC-62 > 100 µM | UO-31 > 100 µM

CC(=O)N/C(=C\c1ccc(Cc2nc3c([nH]2)C(=O)c2ccccc2C3=O)cc1)c1nc2c([nH]1)C(=O)c1ccccc1C2=O
inactive: ACHN > 100 µM | HL-60 > 100 µM | HOP-92 > 100 µM | MOLT-4 > 100 µM | Malme-3M > 100 µM | NCI-H226 > 100 µM | NCI-H460 > 100 µM | SF-268 > 100 µM | SF-295 > 100 µM | SK-MEL-28 > 100 µM | SK-MEL-5 > 100 µM | SN12C > 100 µM | TK-10 78.9 µM | U-251 78.5 µM | UO-31 > 100 µM

COC(=O)c1cc(C)n(NC(=O)OC(C)(C)C)c1C
inactive: ACHN > 100 µM | HL-60 > 100 µM | MOLT-4 > 100 µM | Malme-3M > 100 µM | NCI-H226 > 100 µM | NCI-H460 > 100 µM | SF-268 > 100 µM | SF-295 > 100 µM | SK-MEL-28 > 100 µM | SK-MEL-5 > 100 µM | SN12C > 100 µM | TK-10 > 100 µM | U-251 > 100 µM | UACC-62 > 100 µM | UO-31 > 100 µM

COC1CC(OC)C2OC(c3ccccc3)OCC2O1 (stereo not given)
inactive: ACHN > 100 µM | HL-60 > 100 µM | MOLT-4 > 100 µM | Malme-3M > 100 µM | NCI-H460 > 100 µM | SF-295 > 100 µM | SK-MEL-28 > 100 µM | SK-MEL-5 > 100 µM | SN12C > 100 µM | SR > 100 µM | TK-10 > 100 µM | U-251 > 100 µM | UACC-62 > 100 µM | UO-31 > 100 µM

CCCCCCCCCCCCCCCC[N+](C)(C)Cc1ccc(C[N+](C)(C)CCCCCCCCCCCCCCCC)cc1
inactive: ACHN 3.71 µM | HL-60 2.3 µM | MOLT-4 1.78 µM | NCI-H460 2.51 µM | SF-268 2.38 µM | SF-295 1.74 µM | SK-MEL-28 2.3 µM | SK-MEL-5 6.12 µM | SN12C 1.95 µM | SR 2.39 µM | TK-10 17.8 µM | U-251 1.96 µM | UACC-62 4.13 µM | UO-31 25.8 µM
